Calls of active or inactive are those of the source. No stated cut-off is given here; in the data, actives have a measured IC50 and inactives only a lower limit.

The assay deals with Envelope glycoprotein gp160 (Human immunodeficiency virus 1, UniProt Q6QLK5). The assay is described as follows: inhibitors of HIV fusion peptide binding, primary screen, biochemical, uHTS, fluorescence dequenching (AID 1986).
Chain of Envelope glycoprotein gp160 (Q6QLK5 whole entry, the tested form may be a part): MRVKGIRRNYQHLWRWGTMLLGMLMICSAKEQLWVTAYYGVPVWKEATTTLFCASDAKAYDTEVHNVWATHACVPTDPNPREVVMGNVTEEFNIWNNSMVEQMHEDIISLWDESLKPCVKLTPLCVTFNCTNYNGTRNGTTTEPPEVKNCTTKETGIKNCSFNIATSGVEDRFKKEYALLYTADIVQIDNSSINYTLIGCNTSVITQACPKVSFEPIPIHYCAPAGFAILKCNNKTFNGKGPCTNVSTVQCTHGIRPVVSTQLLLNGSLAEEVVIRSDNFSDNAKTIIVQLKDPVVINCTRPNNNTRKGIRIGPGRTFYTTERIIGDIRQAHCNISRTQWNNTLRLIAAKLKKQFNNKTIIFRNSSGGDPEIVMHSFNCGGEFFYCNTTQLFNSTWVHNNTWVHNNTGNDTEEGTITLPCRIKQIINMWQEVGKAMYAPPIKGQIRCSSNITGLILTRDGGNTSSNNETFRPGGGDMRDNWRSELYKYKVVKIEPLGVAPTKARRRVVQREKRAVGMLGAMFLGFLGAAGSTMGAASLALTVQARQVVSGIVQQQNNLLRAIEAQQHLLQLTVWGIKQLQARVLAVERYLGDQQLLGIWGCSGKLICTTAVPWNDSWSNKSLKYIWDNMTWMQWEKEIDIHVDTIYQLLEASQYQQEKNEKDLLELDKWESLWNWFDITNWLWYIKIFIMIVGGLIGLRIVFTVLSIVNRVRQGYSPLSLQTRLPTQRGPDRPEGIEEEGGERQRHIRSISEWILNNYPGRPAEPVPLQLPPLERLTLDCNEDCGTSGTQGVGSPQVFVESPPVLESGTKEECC

Turning to `O=S(=O)(Nc1nc(-c2sccc2Cl)cs1)c1cc(Cl)ccc1Cl`, the half-maximal inhibitory concentration (IC50) (in general, the concentration that inhibits the measured activity by half) was 8.21 µM (active).

For the origin of these results see ChEMBL document CHEMBL1201862, “PubChem BioAssay data set” (2004).
